In series [1] the test system is aconitine arrhythmia. The experiment in a line: animal or person. The series is classed as in vivo, rats. Particulars: for perdition of narcotized rats prior to administration of aconitine: doses of 20 mg/kg and more; for duration of prevention of aconitine arrhythmia: doses of 5-10 mg/kg; for antiarrhythmic index (LD50/ED50): prophylactic effect, aconitine arrhythmia. The method, then:
The assessment of the antiarrhythmic activity of the preparation was effected in acute and chronical experiments on rats, rabbits, cats and dogs. Various experimental models of arrhythmia were also used.
(§1) The atrioventricular arrhythmia caused by aconitine is one of the most reliable models for forecasting the efficiency of the antiarrhythmic action of the novel preparation in clinics. The experiments were conducted on both narcotized and non-narcotized animals. The preparation was administered per os, intramuscularly, intraperitoneally and intravenously 5 to 15 minutes prior to or 3-5 minutes after the administration of aconitine.
In doses of 0.2-0.5 mg/kg the preparation of this invention prevents the appearance of aconitine arrhythmia in 100% of the rats. […] Under similar experimental conditions a preliminary administration of novocainamide in the dose of 60 mg/kg intravenously produced an antiarrhythmic effect in 50% of the animals.

For series [2], the system named is aconitine arrhythmia. The series is classed as in vivo, rats. The note with it: for efficacy against developing aconitine arrhythmia: similar conditions, dose not stated. On the procedure: as §1
The antiarrhythmic activity of the pharmaceutical composition according to the present invention upon administration thereof against the background of a developing aconitine arrhythmia (therapeutic effect) was studied on 110 narcotized rats. The preparation was intravenously administered at intervals of 3-6 minutes against the background of the originated arrhythmia.

The test system of series [3] is cardiotoxic effect of the preparation. The experiment in a line: sodium bicarbonate at cardiotoxic effect of the preparation in dogs.
Series [4] has as its system cardiac conductive system. The series is classed as in vivo, narcotized rats, cats, intact rabbits and dogs. Particulars: for rhythm of cardiac contractions: high doses. From the text:
To investigate the character of the effect produced on the functions of the cardiac conductive system by the preparation according to the present invention, the ECG changes appearing in narcotized rats, cats, intact rabbits and dogs under the action of the preparation of this invention were studied. […] The effect of the preparation is retained for a long time.

Series [5] can be described thus: infiltration anesthesia in rabbits (intracutaneous). The series is classed as in vivo. Particulars: 0.5% solution. On the procedure:
The local anesthetic effect of the preparation was studied on 14 intact rabbits. […] The results of the experiments on determination of the ability of the preparation to cause infiltration anesthesia have shown that 10-15 minutes after intracutaneous administration, to rabbits, of 0.01-0.05% and 0.1% solutions of the preparation anesthesia occurs which is characterized by an increased threshold of a pain irritation; the duration of the effect is 20 to 48 hours. Under the same conditions of the experiment, the local anesthetic effect of a 0.5% solution of novocaine lasts for 90 minutes on the average.

In series [6] the test system is cardiac arrhythmia induced by barium chloride. The experiment in a line: cardiac arrhythmia induced by barium chloride. The series is classed as in vivo, narcotized rats and intact rabbits. On the procedure: The study of the antiarrhythmic activity of the preparation according to the present invention on a model of cardiac arrhythmia induced by barium chloride was carried out on 56 narcotized rats and 16 intact rabbits. The preparation of the present invention in the dose of 0.1 mg/kg injected 10 minutes prior to administration of barium prevented the development of arrhythmia in 86.6% of the animals.

The subject of series [7] is arrhythmia caused by electrical irritation. Nature of the series: arrhythmia caused by electrical irritation of the right auricle and apex of the left ventricle. The note with it: for onset of antiarrhythmic effect: after intravenous administration; for bradycardia / reduction of arterial pressure: all tested doses. The series is classed as in vivo, dogs and cats.
The subject of series [8] is cardiac arrhythmia caused by ligation of the descending branch of the left coronary artery. Nature of the series: cardiac arrhythmia caused by ligation of the descending branch of the left coronary artery (Harris method) in dogs. The series is classed as in vivo. On the procedure:
The effect of the preparation according to the present invention on the cardiac arrhythmia caused by ligation of the descending branch of the left coronary artery by the Harris method was studied in experiments on dogs. The preparation according to the present invention was intravenously administered on the first and second post-operative days. Preliminarily, prior to every experiment 30 to 45 minutes before the administration of the preparation the background changes of the dogs' electrocardiogram (ECG) were recorded. […] In 40% thereof a full suppression of ectopic contractions was noticed for 3-3.5 hours, whereafter arrhythmia appeared with the intensity thereof not reaching the initial background during 7 hours.

A further series concerns frog's heart. The experiment in a line: amplitude of cardiac contractions of isolated frog's heart (Schtraube). From the text: To find out a negative inotropic effect on the heart tissue, two series of experiments have been carried out:
(1) the study of the effect of the preparation of this invention on the amplitude of the cardiac contractions of a frog's heart isolated according to Schtraube;

Data on eight compounds can be found in US4656178A (priority 1985, dated 1987).

Structures can show the parent of a compound that is named as a salt. Where two headings read alike, the source gives them in different places.

As to `CC(C)NCC(O)COc1cccc2ccccc12` (stereo not drawn) [obzidan, propranolol], the “animals in which arrhythmia was developed (after retardation)” value in the series on aconitine arrhythmia [1] (5 mg/kg) is recorded as 60%. Besides, the “retardation of the time of appearance of aconitine arrhythmia” value in the series on aconitine arrhythmia [1] (5 mg/kg, in all test rats) was in the range of 5 to 8 min. Further, the “efficacy against developing aconitine arrhythmia” value in the series on aconitine arrhythmia [2] is on record as “inefficient”.

Turning to `CCN(CC)CC(=O)Nc1c(C)cccc1C` [lidocaine], in the series on aconitine arrhythmia [1], the “perdition of narcotized rats prior to administration of aconitine” value is on record as “perdition of a portion of the narcotized rats” and the “duration of prevention of aconitine arrhythmia” value lay within 3 to 5 min. Further, the “duration of arrhythmia-arresting effect” value with aconitine arrhythmia [2] (5-10 mg/kg, followed by development of arrhythmia) fell in the range of 0.5 to 3 min.

In the case of `COc1ccc(CCN(C)CCCC(C#N)(c2ccc(OC)c(OC)c2)C(C)C)cc1OC` (stereo not drawn) [isoptin], the “prevention of aconitine arrhythmia” value in the series with aconitine arrhythmia [1] (doses of 0.1-2.5 mg/kg) is listed as “did not prevent the development of aconitine arrhythmia”.

Take `O=C(O)O` [sodium bicarbonate]: in series [3] (4% solution, 100 to 200 ml), the “effect on ECG changes caused by toxic doses of the preparation” value is “equalizes distinctly pronounced electrocardiographic changes”. Moreover, the “effect on reduced arterial pressure in overdosing of the preparation” value in series [3] (infusion of sodium bicarbonate) was “levelled”. In addition, the “time to equalization of ECG changes caused by toxic doses of the preparation” value in series [3] (intravenous infusion of 4% solution, 100 to 200 ml, after beginning of infusion) fell in the range of 15 to 30 min. For the same compound, the “effect on the inhibition of conductivity by the preparation” value in series [4] (in vivo) is given as “diminishes the inhibiting effect of the preparation on conductivity”.

For the compound `CCN(CC)CC(=O)Nc1c(C)cc(C)cc1C` [trimecaine], in the series on aconitine arrhythmia [1], the “perdition of narcotized rats prior to administration of aconitine” value was “perdition of a portion of the narcotized rats” and the “duration of prevention of aconitine arrhythmia” value lay in the range of 3 to 5 min. Further, in the series on aconitine arrhythmia [2], the “efficacy against developing aconitine arrhythmia” value is “inefficient”.

For `CCN(CC)CCOC(=O)c1ccc(N)cc1` [novocaine, reference compound], the “duration of local anesthetic effect (average)” value in [5] is about 90 min.

`CCN(CC)CCNC(=O)c1ccc(N)cc1` [novocainamide, β-diethylaminoethylamide hydrochloride of p-aminobenzoic acid]: the “antiarrhythmic activity, barium chloride model” value in series [6] (comparison with preparation and quinidine) was “weakest antiarrhythmic activity”. Besides, the “animals with antiarrhythmic effect” value turned out to be 40% in series [7] (10 mg/kg); 50% with aconitine arrhythmia [1] (60 mg/kg intravenously, preliminary administration); 83.3% with aconitine arrhythmia [2] (40 mg/kg). The “duration of antiarrhythmic effect” value in [7] (10 mg/kg) is 2 to 5 min; in series [7] (20-30 mg/kg), 20 to 25 min; in series [8] (40-50 mg/kg), 4 to 7 min; in [8] (70-80 mg/kg) it was 30 to 60 min. Moreover, the “onset of antiarrhythmic effect” value in series [7] was 1.0 to 1.5 min. Besides, in [7], the bradycardia entry was “bradycardia”. Also, the “reduction of arterial pressure” value in series [7] is on record as 20-70 mm Hg. For the same compound, the figures for the “antiarrhythmic index (LD50/ED50)” value in the series with aconitine arrhythmia [1] and in the series on aconitine arrhythmia [2] (against background of developing aconitine arrhythmia) were 2.3 and 6.9, respectively. In addition, the “dose producing the antiarrhythmic effect” value in [8] (dog, in vivo) was in the range of 40 to 50 mg/kg. In addition, the “rats with restored normal sinus rhythm” value in the series on aconitine arrhythmia [2] (20 mg/kg) is listed as 3 rats out of 6. Besides, the “duration of restored normal sinus rhythm (average)” value in the series with aconitine arrhythmia [2] (20 mg/kg, then stable arrhythmia appeared again) is about 10 min. Besides, the “rats with effect only during the first 20 minutes, then stable arrhythmia reappeared” value in the series with aconitine arrhythmia [2] (40 mg/kg) is on record as 50%. The “duration of effect, after which stable arrhythmia reappeared” value with aconitine arrhythmia [2] (40 mg/kg, in 50% of the rats) came out at 20 min. For the same compound, the “rhythm of cardiac contractions” value in series [4] is recorded as “sharp disturbances of the rhythm of cardiac contractions”.

Turning to `C=C[C@H]1C[N@@]2CC[C@H]1C[C@@H]2[C@@H](O)c1ccnc2ccc(OC)cc12` [quinidine], the “antiarrhythmic effect relative to the preparation” value in series [6] (10 mg/kg) was “approximately corresponded to the antiarrhythmic effect produced by the preparation according to the present invention in the dose of 0.1 mg/kg”. Besides, in [7] (10 mg/kg), the “animals with antiarrhythmic effect” value is 30% and the “duration of antiarrhythmic effect” value is 2 to 5 min. In [7] (20-30 mg/kg), the “duration of antiarrhythmic effect” value was in the range of 20 to 25 min. In series [7], the “onset of antiarrhythmic effect” value lay within 2 to 3 min, the bradycardia entry is on record as “bradycardia” and the “reduction of arterial pressure” value is recorded as 20-70 mm Hg. Moreover, the “animals with antiarrhythmic effect” value in the series with aconitine arrhythmia [1] (20 mg/kg) came to 50%. Also, the “antiarrhythmic index (LD50/ED50)” value in the series with aconitine arrhythmia [1] is 2.75. For the same compound, in [8] (5-10 mg/kg), the “effect on cardiac arrhythmia” value is “weak effect”. Besides, in the series on frog's heart, the “negative inotropic effect compared with the preparation” value is recorded as “considerably superior to the preparation of the present invention”. Further, the “effect on isolated heart” value with frog's heart (concentration of 10^-4 to 3.10^-4 g/ml) is given as “along with a sharp inhibition of the amplitude of cardiac contractions, arrhythmia”. Further, the “antiarrhythmic activity against developing aconitine arrhythmia” value in the series with aconitine arrhythmia [2] (doses of 2.5, 5, 10, 20 mg/kg) is “no antiarrhythmic activity”. Also, the “rhythm of cardiac contractions” value in [4] was “sharp disturbances of the rhythm of cardiac contractions”.
